Experimental data: US8846928B2 (Portola Pharmaceuticals, Inc., priority 2010, dated 2014)

Each compound was assayed against T1, full length active recombinant SYK enzyme (Homo sapiens, UniProt P43405) (assay: Inhibition of Syk tyrosine phosphorylation activity (LANCE TR-FRET kinase assay)).
T1 construct: full length active recombinant SYK enzyme (Millipore, Calif.); purchased Millipore
Type: biochemical
Method: Inhibition of Syk Tyrosine Phosphorylation Activity
Potency of candidate molecules for inhibiting Syk tyrosine phosphorylation activity is assessed by measuring the ability of a test compound to inhibit Syk-mediated tyrosine phosphorylation of a Syk-specific substrate.
SYK tyrosine phosphorylation activity is measured using the LANCE™ Technology developed by Perkin Elmer Life and Analytical Sciences (Boston, Mass.). LANCE™ refers to homogeneous time resolved fluorometry applications using techniques such as time-resolved fluorescence resonance energy transfer assay (TR-FRET) (see generally for procedures in Perkin Elmer Application Note—How to Optimize a Tyrosine Kinase Assay Using Time Resolved Fluorescence-Based LANCE Detection, wwww.perkinelmer.com/lifesciences). The assay principle involves detection of a phosphorylated substrate using energy transfer from a phosphospecific europium-labeled antibody to streptavidin-allophycocyanin as an acceptor.
To test the ability of candidate molecules to inhibit SYK tyrosine phosphorylation activity, molecules are reconstituted in 30% DMSO and serially diluted 1:3 with the final dilution containing DMSO in the absence of the candidate molecule. The final DMSO concentration in the assay is 3%. Kinase assays are performed as a two part reaction. […] The second reaction involves termination of the kinase reaction and the simultaneous addition of the detection reagents—europium-labeled anti-phosphotyrosine reagent (Eu-W1024-PY100, Perkin Elmer, Boston, Mass.) and Streptavidin-Allophycocyanin detection reagent (SA-APC, Prozyme, Calif.). The kinase reaction is performed in a black U-bottom 96-well microtitre plate. The final reaction volume is 50 μL and contains a final concentration of 1 nM active SYK enzyme, 550 nM SYK-substrate, and 100 μM ATP diluted in a buffer containing 50 mM Tris pH 7.5, 5 mM MgCl2, and 1 mM DTT. The reaction is allowed to proceed for 1 hour at room temperature. The quench buffer contains 100 mM Tris pH 7.5, 300 mM NaCl2, 20 mM EDTA, 0.02% Brij35, and 0.5% BSA. The detection reagents are added to the reaction mixture at the following dilutions-1:500 for Eu-W1024-PY100 and 1:250 for SA-APC. The kinase reaction is terminated by the addition of 50 μL quench buffer containing the detection reagents. The detection is allowed to proceed for 1 hr at room temperature. Detection of the phosphorylated substrate in the absence and presence of inhibitors is measured in the TR-FRET instrument, Analyst HT (Molecular Probes, Sunnyvale, Calif.) and the condition for measurements are set up using CriterionHost Release 2.0 (Molecular Probes, Sunnyvale, Calif.). The settings used are a follows: excitation 360 nm, emission 665-7.5 nm, beam splitter 350 nm 50/50, flash 100 pulses, delay 60 us, integration 400 us, z-height 2 mm. […] IC50s were derived by non-linear regression analysis. […]

IC50 [nM]	Structure (SMILES)
10 to 100	NC(=O)c1ccc(N[C@@H]2CCCC[C@@H]2N)nc1Nc1ccc(-n2cccn2)cc1 (relative stereo) [Example 140, 6-(cis-2-aminocyclohexylamino)-2-(4-(1H-pyrazol-1-yl)phenylamino)nicotinamide]
1 to 10	NC(=O)c1ccc(N[C@@H]2CCCC[C@@H]2N)nc1Nc1ccc2[nH]ncc2c1 (relative stereo) [Example 141, 6-(cis-2-aminocyclohexylamino)-2-(1H-indazol-5-ylamino)nicotinamide]
> 1000	Cc1cccc(Nc2cc(N[C@@H]3CCCC[C@@H]3N)ncc2C(N)=O)c1 (relative stereo) [Example 142, 6-(cis-2-aminocyclohexylamino)-4-(3-toluidino)nicotinamide]
> 1000	Cc1cccc(Nc2cc(N[C@@H]3CCCC[C@@H]3N)ccc2C(N)=O)c1 [Example 1, 4-((1R,2S)-2-aminocyclohexylamino)-2-(m-tolylamino)benzamide]
100 to 1000	Cn1ccc2c(Nc3cc(N[C@@H]4CCCC[C@@H]4N)ccc3C(N)=O)cccc21 [Example 2, 4-((1R,2S)-2-aminocyclohexylamino)-2-(1-methyl-1H-indol-4-ylamino)benzamide]
> 1000	NC(=O)c1ccc(N[C@@H]2CCCC[C@@H]2N)cc1Nc1ccc(F)cc1 [Example 3, 4-((1R,2S)-2-aminocyclohexylamino)-2-(4-fluorophenylamino)benzamide]
100 to 1000	Cc1cc(C)cc(Nc2cc(N[C@@H]3CCCC[C@@H]3N)ccc2C(N)=O)c1 [Example 4, 4-((1R,2S)-2-aminocyclohexylamino)-2-(3,5-dimethylphenylamino)benzamide]
100 to 1000	NC(=O)c1ccc(N[C@@H]2CCCC[C@@H]2N)cc1Nc1cccc(-n2nccn2)c1 [Example 5]
10 to 100	Cc1cc(Nc2cc(N[C@@H]3CCCC[C@@H]3N)ccc2C(N)=O)sn1 [Example 6, 4-((1R,2S)-2-aminocyclohexylamino)-2-(3-methylisothiazol-5-ylamino)benzamide]
10 to 100	NC(=O)c1ccc(N[C@@H]2CCCC[C@@H]2N)cc1Nc1cc(-c2ccccc2)no1 [Example 7, 4-((1R,2S)-2-aminocyclohexylamino)-2-(3-phenylisoxazol-5-ylamino)benzamide]
> 1000	Cn1cc(Nc2cc(N[C@@H]3CCCC[C@@H]3N)ccc2C(N)=O)cn1 [Example 8, 4-((1R,2S)-2-aminocyclohexylamino)-2-(1-methyl-1H-pyrazol-4-ylamino)benzamide]
10 to 100	Cc1cc(Nc2cc(N[C@H](CC(C)C)C(N)=O)ccc2C(N)=O)sn1 [Example 9, (R)-4-(1-amino-4-methyl-1-oxopentan-2-ylamino)-2-(3-methylisothiazol-5-ylamino)benzamide]
100 to 1000	Cc1cc(Nc2cc(N[C@H](C)C(N)=O)ccc2C(N)=O)sn1 [Example 10, (R)-4-(1-amino-1-oxopropan-2-ylamino)-2-(3-methylisothiazol-5-ylamino)benzamide]
100 to 1000	Cc1cc(Nc2cc(N[C@@H](C(N)=O)C(C)C)ccc2C(N)=O)sn1 [Example 11, (R)-4-(1-amino-3-methyl-1-oxobutan-2-ylamino)-2-(3-methylisothiazol-5-ylamino)benzamide]
100 to 1000	Cc1cc(Nc2cc(N[C@H](CC(C)C)C(N)=O)ccc2C(N)=O)no1 [Example 12, (R)-4-(1-amino-4-methyl-1-oxopentan-2-ylamino)-2-(5-methylisoxazol-3-ylamino)benzamide]
100 to 1000	Cc1cc(Nc2cc(N[C@H](CC(C)C)C(N)=O)ccc2C(N)=O)on1 [Example 13, (R)-4-(1-amino-4-methyl-1-oxopentan-2-ylamino)-2-(3-methylisoxazol-5-ylamino)benzamide]
10 to 100	Cc1cc(Nc2cc(N[C@H](Cc3ccccc3)C(N)=O)ccc2C(N)=O)sn1 [Example 14, (R)-4-(1-amino-1-oxo-3-phenylpropan-2-ylamino)-2-(3-methylisothiazol-5-ylamino)benzamide]
100 to 1000	Cc1cc(Nc2cc(N[C@H](COCc3ccccc3)C(N)=O)ccc2C(N)=O)sn1 [Example 15, (R)-4-(1-amino-3-(benzyloxy)-1-oxopropan-2-ylamino)-2-(3-methylisothiazol-5-ylamino)benzamide]
100 to 1000	Cc1cc(Nc2cc(N[C@H](CO)C(N)=O)ccc2C(N)=O)sn1 [Example 16, (R)-4-(1-amino-3-hydroxy-1-oxopropan-2-ylamino)-2-(3-methylisothiazol-5-ylamino)benzamide]
10 to 100	Cc1cc(Nc2cc(N[C@H](CC3CCCCC3)C(N)=O)ccc2C(N)=O)sn1 [Example 17, (R)-4-(1-amino-3-cyclohexyl-1-oxopropan-2-ylamino)-2-(3-methylisothiazol-5-ylamino)benzamide]
100 to 1000	Cc1cc(Nc2cc(N[C@@H](C(N)=O)c3ccccc3)ccc2C(N)=O)sn1 [Example 18, (R)-4-(2-amino-2-oxo-1-phenylethylamino)-2-(3-methylisothiazol-5-ylamino)benzamide]
> 1000	Cc1cc(Nc2cc(N[C@H](CC(C)C)C(N)=O)cc(F)c2C(N)=O)sn1 [Example 19, (R)-4-(1-amino-4-methyl-1-oxopentan-2-ylamino)-2-fluoro-6-(3-methylisothiazol-5-ylamino)benzamide]
10 to 100	Cc1cc(Nc2cc(N[C@H](CC(C)C)C(N)=O)c(F)cc2C(N)=O)sn1 [Example 20, (R)-4-(1-amino-4-methyl-1-oxopentan-2-ylamino)-5-fluoro-2-(3-methylisothiazol-5-ylamino)benzamide]
10 to 100	Cc1cc(Nc2cc(N[C@@H]3CCCC[C@@H]3N)c(F)cc2C(N)=O)sn1 [Example 21, 4-((1R,2S)-2-aminocyclohexylamino)-5-fluoro-2-(3-methylisothiazol-5-ylamino)benzamide]
10 to 100	Cc1cc(Nc2cc(N[C@@H](C(N)=O)C3CCCCC3)ccc2C(N)=O)sn1 [Example 22, (R)-4-(2-amino-1-cyclohexyl-2-oxoethylamino)-2-(3-methylisothiazol-5-ylamino)benzamide]
> 1000	Cc1cc(Nc2c(C(N)=O)ccc(N[C@H](CC(C)C)C(N)=O)c2F)sn1 [Example 23, (R)-4-(1-amino-4-methyl-1-oxopentan-2-ylamino)-3-fluoro-2-(3-methylisothiazol-5-ylamino)benzamide]
1 to 10	Cc1cc(Nc2cc(N[C@H](Cc3ccccc3)C(N)=O)c(F)cc2C(N)=O)sn1 [Example 24, (R)-4-(1-amino-1-oxo-3-phenylpropan-2-ylamino)-5-fluoro-2-(3-methylisothiazol-5-ylamino)benzamide]
10 to 100	Cc1cc(Nc2cc(N[C@H](CC3CC3)C(N)=O)c(F)cc2C(N)=O)sn1 [Example 25, (R)-4-(1-amino-3-cyclopropyl-1-oxopropan-2-ylamino)-5-fluoro-2-(3-methylisothiazol-5-ylamino)benzamide]
10 to 100	CC[C@@H](Nc1cc(Nc2cc(C)ns2)c(C(N)=O)cc1F)C(N)=O [Example 26, (R)-4-(1-amino-1-oxobutan-2-ylamino)-5-fluoro-2-(3-methylisothiazol-5-ylamino)benzamide]
10 to 100	Cc1cc(Nc2cc(N[C@H](Cc3ccc(F)cc3)C(N)=O)c(F)cc2C(N)=O)sn1 [Example 27, (R)-4-(1-amino-3-(4-fluorophenyl)-1-oxopropan-2-ylamino)-5-fluoro-2-(3-methylisothiazol-5-ylamino)benzamide]
